Each structure is given as a SMILES string.

This passage reports IC50 results from patent US10836758B2, “Acyl sulfonamide NaV1.7 inhibitors” (BRISTOL-MYERS SQUIBB COMPANY, priority 2016, dated 2020).

The test has as its target NaV1.7 (Homo sapiens (Human), UniProt Q15858). The test can be described thus: NaV1.7 IC50 of Table 1 (IonWorks Barracuda population patch clamp or ligand binding assay; table does not say which). It counts as cell-based. As to conditions: HEK 293 cells expressing NaV1.7. The procedure: Ion Works Barracuda population patch clamp (PPC). PPC measurements were performed using an IonWorks Barracuda instrument (Molecular Devices Corporation, Union City, Calif.) using either PatchPlate™ PPC substrates (Molecular Devices Corporation) with 64 apertures per well. The ability to average currents from 64 recordings from each well greatly improves data consistency and recording success rates in the measurement of NaV1.7 mediated ionic currents. Calculated leak current was digitally subtracted from the total cell NaV1.7 current for each sample point acquired.
NaV1.7 currents were elicited by a voltage clamp protocol designed to bias the NaV1.7 channels to their inactivated state as follows. […] This was followed by a relatively brief hyperpolarization to −100 mv for 300 ms, then a 20 msec test pulse to −20 mV to elicit the NaV1.7 current used to measure the pharmacology of all test compounds. Compounds were incubated for 600 sec between the pre- and post-compound reads. […] The same solutions were used to record NaV1.5 currents, with the following voltage clamp protocol. NaV1.5 currents were elicited by a voltage clamp protocol designed to bias the NaV1.5 channels to their inactivated state as follows. […] This was followed by a relatively brief hyperpolarization to −100 mv for 30 ms, then a 20 msec test pulse to −10 mV to elicit the NaV1.5 current used to measure the pharmacology of all test compounds.
HEK 293 cells expressing NaV1.7 and NaV1.5 channels, were used (Essen Biosciences, Ann Arbor, Mich.). […] Cells were grown to 70% to 90% confluence in a flask and removed from the incubator (37° C., 5% CO2) 1 to 3 days after plating. Growth medium was aspirated from the culture flasks. […] Next a total of 2 mL TrypLE (Gibco) solution was added, and the flasks containing cells were sat for 3 min at RT, after which, the cells became visibly rounded and were easily dislodged from the bottom of the flask with a few brief taps on a solid surface. A total of 8 mL of media was added to the flask to inactivate the TrypLE, and the mixture was centrifuged at 910 rpm for 4 min. The cell supernatant was decanted, and the cell pellets were resuspended in 5-6 mL of external solution followed by gentle triturations using a 10 ml pipette, and transferred to a 15 ml conical tube and immediately brought to the IW Barracuda instrument.
Peak membrane currents were analyzed with IW Barracuda software and exported to Excel for further analysis. Concentration response curve fitting was performed with BMS in-house software. IC50 values were obtained by fits of the Hill equation to the average percent inhibition data plotted versus compound concentration. […] Results are reported in Table 1 (NaV1.7 Barra IC50 in nM and NaV1.5 Barra IC50 in nM).
hNaV1.7 binding affinities were determined with a filtration binding assay using purified membranes from HEK293 cells stably expressing hNaV1.7. HEK293 cells from a 10-stack cell culture flask (approximately 10^10 cells) were dissociated, frozen, and stored at −80° C. To prepare membranes, the frozen cell pellet was thawed and suspended in 6 ml hypotonic lysis buffer (50 mM HEPES, 0.1% mammalian protease inhibitor cocktail). 1 ml of resuspended cells was added to an additional 6 ml of lysis buffer and homogenized with 30 strokes of a tight pestle in a glass homogenizer. Homogenate was centrifuged at 1000×g for 10 minutes at 4° C. and the resulting supernatant was further centrifuged at 38,500×g for 60 minutes at 4° C. The resulting pellet was resuspended in binding buffer (50 mM HEPES, 130 mM NaCl, 5.4 mM KCl, 0.8 mM MgCl2, 5 mM glucose, pH 7.4) and needle homogenized with a 25 gauge needle. Protein concentration was determined with a BCA protein assay. Purified membranes were aliquoted, flash frozen in an ethyl alcohol dry ice bath, and stored at −80° C.
A general note: In patch-clamp work, channel activity is measured electrically.

NaV1.7, sequence (Q15858 whole entry): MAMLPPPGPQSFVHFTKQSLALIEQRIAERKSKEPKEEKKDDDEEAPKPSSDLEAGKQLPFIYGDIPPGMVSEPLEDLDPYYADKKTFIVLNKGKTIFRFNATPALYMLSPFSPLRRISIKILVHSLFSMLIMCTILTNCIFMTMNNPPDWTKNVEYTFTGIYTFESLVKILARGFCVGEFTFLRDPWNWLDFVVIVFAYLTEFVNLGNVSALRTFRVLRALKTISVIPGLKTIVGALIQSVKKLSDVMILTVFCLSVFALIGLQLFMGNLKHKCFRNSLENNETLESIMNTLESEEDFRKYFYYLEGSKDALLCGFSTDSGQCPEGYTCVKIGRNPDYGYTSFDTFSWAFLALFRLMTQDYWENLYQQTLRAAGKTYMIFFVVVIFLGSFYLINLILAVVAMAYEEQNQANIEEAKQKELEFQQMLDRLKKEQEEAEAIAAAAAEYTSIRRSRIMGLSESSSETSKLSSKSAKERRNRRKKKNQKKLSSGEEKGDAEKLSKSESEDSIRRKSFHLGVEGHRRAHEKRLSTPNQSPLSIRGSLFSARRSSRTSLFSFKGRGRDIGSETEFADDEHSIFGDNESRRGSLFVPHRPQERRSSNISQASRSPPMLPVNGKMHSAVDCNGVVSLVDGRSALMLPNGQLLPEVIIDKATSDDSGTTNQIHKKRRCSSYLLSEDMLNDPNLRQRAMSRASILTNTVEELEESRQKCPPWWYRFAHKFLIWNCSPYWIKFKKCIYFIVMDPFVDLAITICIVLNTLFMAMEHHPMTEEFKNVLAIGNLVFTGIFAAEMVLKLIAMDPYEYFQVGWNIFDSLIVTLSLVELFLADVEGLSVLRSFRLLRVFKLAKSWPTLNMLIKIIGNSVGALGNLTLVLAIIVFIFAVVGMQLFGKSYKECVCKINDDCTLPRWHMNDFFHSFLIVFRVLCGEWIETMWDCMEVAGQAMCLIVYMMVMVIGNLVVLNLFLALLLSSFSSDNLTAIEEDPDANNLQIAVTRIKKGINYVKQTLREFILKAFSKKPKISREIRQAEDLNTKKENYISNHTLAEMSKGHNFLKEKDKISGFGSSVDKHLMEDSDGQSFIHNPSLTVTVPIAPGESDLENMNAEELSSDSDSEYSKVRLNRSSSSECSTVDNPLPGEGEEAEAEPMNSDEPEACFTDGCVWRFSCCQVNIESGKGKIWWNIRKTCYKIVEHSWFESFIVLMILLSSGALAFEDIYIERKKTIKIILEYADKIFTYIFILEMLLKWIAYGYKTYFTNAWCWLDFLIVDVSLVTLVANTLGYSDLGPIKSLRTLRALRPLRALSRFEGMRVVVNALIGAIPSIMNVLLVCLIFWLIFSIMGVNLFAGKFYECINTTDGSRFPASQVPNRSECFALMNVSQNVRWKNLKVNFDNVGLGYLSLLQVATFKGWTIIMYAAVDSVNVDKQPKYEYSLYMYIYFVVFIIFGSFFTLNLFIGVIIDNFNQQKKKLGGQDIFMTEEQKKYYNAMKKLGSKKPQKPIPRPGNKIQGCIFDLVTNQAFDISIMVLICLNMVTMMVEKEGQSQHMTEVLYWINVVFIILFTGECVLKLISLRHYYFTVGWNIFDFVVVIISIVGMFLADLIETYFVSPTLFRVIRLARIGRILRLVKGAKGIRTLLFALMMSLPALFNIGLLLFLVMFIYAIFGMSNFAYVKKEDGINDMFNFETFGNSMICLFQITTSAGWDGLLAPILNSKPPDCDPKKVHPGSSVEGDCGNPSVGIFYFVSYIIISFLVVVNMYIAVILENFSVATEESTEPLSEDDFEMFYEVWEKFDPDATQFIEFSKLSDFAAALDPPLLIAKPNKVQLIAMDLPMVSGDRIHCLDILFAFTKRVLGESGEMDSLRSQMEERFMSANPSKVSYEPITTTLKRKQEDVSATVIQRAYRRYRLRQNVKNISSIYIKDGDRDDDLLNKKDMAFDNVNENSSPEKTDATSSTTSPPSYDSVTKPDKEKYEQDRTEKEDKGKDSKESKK

A word on the IC50: it is the concentration needed to halve the response being measured. A low value points to inhibition by little substance. In turn, `NC1CCC(CCOc2cc(F)c(S(=O)(=O)Nc3ncns3)cc2F)(c2ccccc2)CC1` (single isomer, unassigned) [Example 50, 4-(2-(4-amino-1-phenylcyclohexyl)ethoxy)-2,5-difluoro-N-(1,2,4-thiadiazol-5-yl)benzenesulfonamide] displayed an IC50 of 0.473 µM.
`CC1CC(C)(C)C(CNc2cc(F)c(S(=O)(=O)Nc3nccs3)cc2Cl)C1N` (stereo not shown) [Example 30, 4-(((5-Amino-2,2,4-trimethylcyclopentyl)methyl)amino)-5-chloro-2-fluoro-N-(thiazol-2-yl)benzenesulfonamide] yielded an IC50 of 0.012 µM.
Consider `O=S(=O)(Nc1nccs1)c1cc(Cl)c(NC[C@@H]2CCCNC2)cc1F` [Example 43, (R)-5-Chloro-2-fluoro-4-((piperidin-3-ylmethyl)amino)-N-(thiazol-2-yl)benzenesulfonamide], for which the IC50 was 0.272 µM.
For `O=S(=O)(Nc1nccs1)c1cc(Cl)c(NCC2(CN3CCCC3)CC2)cc1F` [Example 12, 5-Chloro-2-fluoro-4-(((1-(pyrrolidin-1-ylmethyl)cyclopropyl)methyl)amino)-N-(thiazol-2-yl)benzenesulfonamide], the concentration for half-maximal inhibition (IC50) was determined as 0.011 µM.
For `CC1(CCOc2cc(F)c(S(=O)(=O)Nc3ncns3)cc2F)CCC(N)CC1` (single isomer, unassigned) [Example 57, 4-(2-((1s,4s)-4-Amino-1-methylcyclohexyl)ethoxy)-2,5-difluoro-N-(1,2,4-thiadiazol-5-yl)benzenesulfonamide], the 50% inhibitory concentration (IC50) came out at 0.383 µM.
Consider `NC1CCCC(Nc2cc(F)c(S(=O)(=O)Nc3nccs3)cc2Cl)C1` (stereo not shown) [Example 28, 4-((3-Aminocyclohexyl)amino)-5-chloro-2-fluoro-N-(thiazol-2-yl)benzenesulfonamide], for which the IC50 was 0.027 µM.
Consider `O=S(=O)(Nc1nccs1)c1cc(Cl)c(NC2CCC3CNCC32)cc1F` (stereo not shown) [Example 65, 5-chloro-2-fluoro-4-((octahydrocyclopenta[c]pyrrol-4-yl)amino)-N-(thiazol-2-yl)benzenesulfonamide], for which the IC50 was determined as 0.098 µM.
